29 molecules from patent US20200197409A1, “HEPATITIS B VIRUS SURFACE ANTIGEN INHIBITOR” (FUJIAN COSUNTER PHARMACEUTICAL CO., LTD., priority 2017, published 2020) can be followed below.

The subject of one experiment is HBsAg. Particulars: read-out: HBsAg EC50; HepG2.2.15 cells, supernatant on the 8th day. How it is done: The HBV DNA content in HepG2.2.15 cells culture supernatant was determined by real-time quantitative qPCR assay (real time-qPCR), and the HBV surface antigen content was determined by enzyme linked immunosorbent assay (ELISA). The inhibitory effect of the compound on HBV was evaluated by the EC50 value of the compound.
(§1) 2.1 Cell Line: HepG2.2.15 Cells
3.1 HepG2.2.15 cells (4×10^4 cells/well) were seeded into a 96-well plate and incubated overnight at 37° C. under 5% CO2.
3.2 On the 2nd day, the compound was diluted into 8 concentrations with 3-fold gradient. The compounds with different concentrations were added into the culture wells in duplicate wells. The final concentration of DMSO in the culture medium was 0.5%, 10 μM ETV was used as a 100%/inhibition control, and 0.5% DMSO was used as a 0% inhibition control.
3.3 On the 5th day, the culture medium was replaced with a fresh medium containing the compound.
3.4 On the 8th day, the culture medium in the culture well was collected, and a part of the sample was taken for ELISA to determine the content of hepatitis B virus S antigen, a part of the sample was taken to extract DNA with a high-throughput DNA purification kit (Qiagen-51162).
3.8 Determination of hepatitis B virus S antigen content by ELISA
50 μL of sample and standard sample were taken and added into a reaction plate respectively, followed by addition of 50 μL of enzyme conjugate into each well, the mixture was shaken and well-mixed, and placed in a bath at 37° C. for 60 minutes. The plate was then washed with washing solution 5 times, followed by addition of 50 μL of illuminating substrate into each well, the mixture was well-mixed and allowed to react at room temperature for 10 minutes in the dark. Chemiluminescence intensity was determined by a ELISA.
Calculation of the percentage of inhibition:% Inh.=(1−value of sample/value of DMSO control)×100
Calculation of EC50: The 50% inhibitory concentration (EC50) value of the compound on HBV was calculated by GraphPad Prism software.

The next experiment deals with HBV-DNA. Nature of the experiment: HBV DNA content in HepG2.2.15 cells culture supernatant by real time-qPCR. It is filed as cell-based. As to conditions: supernatant on the 8th day. The protocol: as §1
3.6 15 μL of the reaction mixture was added into each well of a 96-well PCR plate, followed by addition of 10 μL of sample DNA or HBV DNA standards into each well.
3.7 PCR reaction conditions: heating at 95° C. for 10 minutes, then denaturation at 95° C. for 15 seconds, extension at 60° C. for 1 minute, a total of 40 cycles.
Background: In qPCR the cycle at which signal appears reflects the starting amount.

Another experiment deals with HBV. Nature of the experiment: Anti-HBV activity on the hepatitis B virus mouse model (AAV-HBV). It is filed as in vivo, C57BL/6 mice. As to conditions: 1 mg/kg, PO, QD. How it is done: The AAV vector-mediated HBV infected mouse model is a fast and efficient HBV model. Using the high hepatotropism of the AAV vector, the recombinant adeno-associated type 8 virus carrying 1.3 copies of the HBV genome (rAAV8-1.3HBV) is injected into the tail vein of mice, which can efficiently introduce the carried 1.3 copy HBV genome into hepatocytes. Due to the characteristics of the AAV viral vector, the vector mediated by it can express for a long time. The AAV/HBV model can continuously replicate HBV DNA and express HBsAg and HBeAg in the liver of the mice.
The anti-HBV efficacy of the test compound in vivo was evaluated by determining the content of HBsAg in the serum of the mice after treatment with the test compound on AAV/HBV mouse mode.
C57BL/6 mice, 10% HP-f-CD as vehicle, reference compound TDF (Tenofovir), test compound, recombinant virus rAAVS-1.3HBV, main reagents of the experiment including QIAamp96 DNA kit and TaqMan® Universal PCR Master Mix, Hepatitis B Virus Surface Antigen Detection Kit, instruments including: centrifuge (Beckman Allegra X-15R), tissue grinder (QIAGEN-Tissue lyser II) and spectrophotometer (Thermo-NANODROP 1000).
a) All mice were orally administered on the 28th day after the virus injection, and the day was set as day 0. Submaxillary blood of all mice was collected for serum collection before administration. The mice were administered once a day for four weeks.
b) Submaxillary blood of all mice was collected for serum collection twice a week, the volume of the blood collected each time was approximately 100 μL.
c) On the 28th day, all mice were euthanized and the blood was collected from the heart for serum collection.
The content of HBsAg in the serum of the mice was determined by ELISA. The experimental procedure refers to the specification of HBsAg ELISA kit.
a) The anti-HBV activity of the test compound on AAV/HBV mice model was evaluated by determining the content of HBsAg in the plasma of the mice.

Molecules are shown by their SMILES.

For orientation: EC50 means the midpoint of the concentration-response curve.

Regarding `CC[C@@H]1COc2cc(OCCCOC)c(Cl)cc2-c2cc(=O)c(C(=O)O)cn21` [Embodiment 1], the EC50 worked out at 47.2 nM with HBsAg and 44.7 nM in the experiment on HBV-DNA.

Consider `COCCCOc1cc2c(cc1Cl)-c1cc(=O)c(C(=O)O)cn1[C@H](C(C)C)CO2` [Embodiment 2], for which the EC50 amounted to 6.59 nM with HBsAg and 8.75 nM in the experiment with HBV-DNA.

On to `COCCCOc1cc2c(cc1Cl)-c1cc(=O)c(C(=O)O)cn1[C@H](C1CC1)CO2` [Embodiment 3], for which the EC50 in the experiment with HBsAg turned out to be 66.2 nM; in the experiment on HBV-DNA it was 105 nM.

Turning to `COCCCOc1cc2c(cc1Cl)-c1cc(=O)c(C(=O)O)cn1[C@H](C1CCCC1)CO2` [Embodiment 4], the figures for the half-maximal effective concentration (EC50) in the experiment with HBsAg and in the experiment on HBV-DNA were 65.8 nM and 11.2 nM, respectively.

`CC[C@@H](C)C1COc2cc(OCCCOC)c(Cl)cc2-c2cc(=O)c(C(=O)O)cn21` (some centres unmarked) [Embodiment 5]: the EC50 with HBsAg was 28.8 nM; with HBV-DNA, 21.5 nM.

With `CCSCCOc1cc2c(cc1Cl)-c1cc(=O)c(C(=O)O)cn1[C@H](C(C)C)CO2` [Embodiment 7], the EC50 came out at 59.8 nM in the experiment on HBsAg and 35.3 nM with HBV-DNA.

Turning to `CSCCOc1cc2c(cc1Cl)-c1cc(=O)c(C(=O)O)cn1[C@H](C(C)C)CO2` [Embodiment 8], the EC50 in the experiment on HBsAg turned out to be 18 nM; in the experiment with HBV-DNA, 22.2 nM.

`CC(C)[C@@H]1COc2cc(OCCCSCC(=O)O)c(Cl)cc2-c2cc(=O)c(C(=O)O)cn21` [Embodiment 9]: the EC50 in the experiment with HBsAg is 22.4 nM; with HBV-DNA, 16.2 nM.

For `CO/N=C/CCOc1cc2c(cc1Cl)-c1cc(=O)c(C(=O)O)cn1[C@H](C(C)C)CO2` [Embodiment 10], the EC50 with HBsAg amounted to 5.05 nM; in the experiment on HBV-DNA it was 3.67 nM.

Consider `CNC(=O)OCCCOc1cc2c(cc1Cl)-c1cc(=O)c(C(=O)O)cn1[C@H](C(C)C)CO2` [Embodiment 11], for which the figures for the EC50 in the experiment on HBsAg and in the experiment with HBV-DNA were 15.5 nM and 14.2 nM, respectively.

For `CCN(CC)C(=O)CCCOc1cc2c(cc1Cl)-c1cc(=O)c(C(=O)O)cn1[C@H](C(C)C)CO2` [Embodiment 12], the EC50 in the experiment with HBsAg stood at 25.5 nM; in the experiment on HBV-DNA, 19.1 nM.

For `CC(C)[C@@H]1COc2cc(OCCOCC(F)(F)F)c(Cl)cc2-c2cc(=O)c(C(=O)O)cn21` [Embodiment 13], the EC50 came out at 43.9 nM with HBsAg and 24.1 nM in the experiment with HBV-DNA.

Turning to `COc1cc2c(cc1Cl)-c1cc(=O)c(C(=O)O)cn1[C@H](C(C)C)CO2` [Embodiment 14], the EC50 in the experiment with HBsAg turned out to be 22.8 nM; in the experiment with HBV-DNA, 23.4 nM.

Regarding `CC(C)[C@@H]1COc2cc(OCC3CC3)c(Cl)cc2-c2cc(=O)c(C(=O)O)cn21` [Embodiment 15], the figures for the EC50 with HBsAg and in the experiment with HBV-DNA were 10.4 nM and 8.66 nM, respectively.

As for `CC(C)COc1cc2c(cc1Cl)-c1cc(=O)c(C(=O)O)cn1[C@H](C(C)C)CO2` [Embodiment 16], the EC50 was found to be 9.73 nM with HBsAg and 11.4 nM with HBV-DNA.

Take `CC(C)[C@@H]1COc2cc(OCC3CCOCC3)c(Cl)cc2-c2cc(=O)c(C(=O)O)cn21` [Embodiment 17]: the results for the EC50 in the experiment with HBsAg and in the experiment on HBV-DNA were 5.05 nM and 4.77 nM, respectively.

In the case of `COCCOc1cc2c(cc1Cl)-c1cc(=O)c(C(=O)O)cn1[C@H](C(C)C)CO2` [Embodiment 18], the EC50 in the experiment on HBsAg worked out at 34.8 nM; with HBV-DNA, 34.7 nM.

`COCCCCOc1cc2c(cc1Cl)-c1cc(=O)c(C(=O)O)cn1[C@H](C(C)C)CO2` [Embodiment 19]: the EC50 with HBsAg stood at 8.15 nM; in the experiment on HBV-DNA it was 11.7 nM.

As to `CC(C)[C@@H]1COc2cc(OCCCN3CCOC3=O)c(Cl)cc2-c2cc(=O)c(C(=O)O)cn21` [Embodiment 20], the EC50 was found to be 41.9 nM in the experiment with HBsAg and 45 nM in the experiment on HBV-DNA.

Take `CC(C)[C@@H]1COc2cc(OCCCOC(F)(F)F)c(Cl)cc2-c2cc(=O)c(C(=O)O)cn21` [Embodiment 21]: the EC50 with HBsAg is 25.9 nM; in the experiment on HBV-DNA, 23.2 nM.

In the case of `CC(=O)CCCOc1cc2c(cc1Cl)-c1cc(=O)c(C(=O)O)cn1[C@H](C(C)C)CO2` [Embodiment 22], the EC50 was 11.4 nM with HBsAg and 11.2 nM in the experiment with HBV-DNA.

For the molecule `COC(=O)NCCCOc1cc2c(cc1Cl)-c1cc(=O)c(C(=O)O)cn1[C@H](C(C)C)CO2` [Embodiment 23], the EC50 in the experiment with HBsAg was 33.6 nM; in the experiment on HBV-DNA it was 24.1 nM.

`COCCCOc1cc2c(cc1Cl)-c1cc(=O)c(C(=O)O)cn1[C@H](C(C)(C)C)CO2` [Embodiment 24]: the EC50 in the experiment on HBsAg is 0.743 nM; in the experiment on HBV-DNA it was 0.457 nM.

For the molecule `COCCCOc1cc2c(cc1Br)-c1cc(=O)c(C(=O)O)cn1[C@H](C(C)(C)C)CO2` [Embodiment 25], the results for the EC50 in the experiment on HBsAg and with HBV-DNA were 0.769 nM and < 0.457 nM, respectively.

With `COCCCOc1cc2c(cc1C#N)-c1cc(=O)c(C(=O)O)cn1[C@H](C(C)C)CO2` [Embodiment 26], the results for the EC50 in the experiment with HBsAg and with HBV-DNA were 3.33 nM and 2.19 nM, respectively.

For `COCCCOc1cc2c(cc1C)-c1cc(=O)c(C(=O)O)cn1[C@H](C(C)(C)C)CO2` [Embodiment 27], the EC50 in the experiment on HBsAg is 2.51 nM; in the experiment on HBV-DNA it was 1.1 nM.

With `COCCCOc1cc2c(cc1C1CC1)-c1cc(=O)c(C(=O)O)cn1[C@H](C(C)(C)C)CO2` [Embodiment 28], the EC50 with HBsAg was found to be 0.718 nM; with HBV-DNA it was 0.508 nM.

Turning to `COCCCOc1cc2c(cc1C(C)=O)-c1cc(=O)c(C(=O)O)cn1[C@H](C(C)C)CO2` [Embodiment 29], the values for the EC50 in the experiment on HBsAg and in the experiment with HBV-DNA were 1.34 nM and 0.507 nM, respectively.

Consider `CC(C)OC(=O)OCOP(=O)(CO[C@H](C)Cn1cnc2c(N)ncnc21)OCOC(=O)OC(C)C.O=C(O)/C=C/C(=O)O` [TDF, reference compound], for which the “HBsAg content in the plasma of the mice” value is 4.56 IU/mL in the experiment with HBV (day 4); 4.59 IU/mL in the experiment with HBV (day 7); 4.66 IU/mL in the experiment with HBV (day 11); 4.50 IU/mL with HBV (day 14); 4.61 IU/mL in the experiment with HBV (day 18); 4.52 IU/mL in the experiment with HBV (day 21). In addition, the “HBsAg content in the plasma of the mice” value came out at 4.33 IU/mL in the experiment with HBV (day 25), 4.34 IU/mL with HBV (day 28) and 4.59 IU/mL with HBV (day −1).
